From US20240140958A1, “FUSED QUADRACYCLIC COMPOUNDS, COMPOSITIONS AND USES THEREOF” (Tabomedex Biosciences, Inc., priority 2021, published 2024)

Experiments:
[1] = target: T1, MAPKAPK2 Recombinant Human Protein (Homo sapiens, UniProt P49137); test: MK2 kinase assay (Z'-LYTE kinase assay kit); conditions: inhibition of MK2 biochemical activity; 90 min incubation at room temperature
T1 construct: purchased ThermoFisher pv3317
Protocol: Materials and Reagents for Measuring Inhibition of MK2 Biochemical Activity: • 1) Assay plate: 384 Well Low Volume Black Round Bottom Polystyrene NBS Microplate (Corning, Cat.No. 4514) • 2) MK2 kinase assay kit: Z' LYTE KINASE ASSAY KIT (ThermoFisher, Cat.No. pv3177) • 3) MAPKAPK2 Recombinant Human Protein (ThermoFisher, Cat.No. pv3317) • 4) DMSO (Vetec, Cat.No. V900090) • 5) DTT (Sigma, Cat.No. D0632)
MK2 Kinase Assay Procedure: • 1) Dispense 5 μl Kinase/Peptide Mixture to each wells of 384-well plate • 2) Add 2.5 μl 4× Test Compound to each well • 3) Add 2.5 μl 4× ATP Solution to each well • 4) After 90 minutes incubation at room temperature, add 5 μl Development Solution to each well • 5) After 60 minutes incubation at room temperature, add 5 μl stop Solution to each well • 6) Measure the Coumarin (Ex. 400 nm, Em. 445 nm) and Fluorescein (Ex. 400 nm, Em. 520 nm) emission signals on an Envision plate reader (PerkinElmer)

THP-1 cells = test: THP-1 cell assay: LPS-stimulated pSer78-Hsp27 ELISA; assay type: cell-based; conditions: Homo sapiens, PMA-differentiated THP-1 cells, compound 60 min before 20 ng/mL LPS for 30 min
Source text: Materials and Reagents for Measuring Activity in THP-1 Cells: • 1) THP-1 cells (Cell bank of Shanghai) • 2) PMA (Sigma, Cat.No. P1585) • 3) LPS (Sigma, Cat.No. L4516) • 4) 96-well tissue-culture treated plate (Grenier, Cat.No. 655180) • 5) FBS (Thermofisher, Cat.No. 10100147) • 6) Complete EDTA-free protease inhibitor Cocktail (Roche, Cat.No. 4693132001) • 7) PhosSTOP (Roche, Cat.No. 4906845001) • 8) Phosphor-Hsp27 (Ser78) Sandwich Elisa kit (CST, Cat.No. 7295)
Cell Assay Procedure: • 1) Day 0: THP-1 cells are seeded at 50K/well in complete media (1640+10% FBS+50 μM β-ME)+20 ng/mL PMA in 96-well plate • 2) Day 1: PMA containing media is removed after 24 h incubation (37° C./5% CO2), and replaced with complete growth media. Cells are incubated an additional 48 h to recover. • 3) Day 3: Cells are incubated with or without compounds at indicated concentrations for 60 min, prior to addition of 20 ng/mL LPS. Cells are stimulated for 30 min with LPS, washed 1× with ice cold PBS, lysed on ice in Lysis buffer provided in ELISA kit with Roche protease & phosphatase inhibitors. Extracts are clarified by refrigerated centrifugation & stored at −80° C. until pHsp27/total Hsp27 ELISAs • 4) Day 3 or Day 4: Cell Signaling Technology ELISA is run for pSer78-Hsp27 on lysates diluted to approximately 2.5 μg/well. • 5) The absorbance at 450 nm was read in a SpectraMax plus plate reader (Molecular Devices). Data was processed using GraphPad prism 8.0.

T1 sequence (P49137 whole entry): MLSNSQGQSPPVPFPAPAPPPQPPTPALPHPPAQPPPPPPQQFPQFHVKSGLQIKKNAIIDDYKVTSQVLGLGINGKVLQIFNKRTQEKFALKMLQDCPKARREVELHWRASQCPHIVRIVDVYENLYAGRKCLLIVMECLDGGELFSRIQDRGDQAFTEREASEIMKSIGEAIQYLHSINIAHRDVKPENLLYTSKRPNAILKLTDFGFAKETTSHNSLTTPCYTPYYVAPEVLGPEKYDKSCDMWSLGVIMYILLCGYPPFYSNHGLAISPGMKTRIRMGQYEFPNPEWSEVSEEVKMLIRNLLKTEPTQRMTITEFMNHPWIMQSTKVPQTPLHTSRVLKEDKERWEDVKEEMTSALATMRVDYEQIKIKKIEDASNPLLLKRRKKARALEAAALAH

Row | Compound | IC50 [1] [nM] | IC50 (THP-1 cells) [nM]
1 | CN(C)C[C@H]1CCN(c2ccc3c(c2)Cn2cc(-c4ccc(C#N)cc4)cc2-c2nccn2-3)C1=O (single isomer, unassigned) [Example 35] | < 50 | < 50
2 | CN(C)CC1CN(C(=O)c2ccc3c(c2)Cn2cc(-c4ccc(C#N)cc4)cc2-c2nccn2-3)C1 [Example 117] | 50 to 100 | 500 to 1000
3 | CN(CCO)C[C@H]1CC(=O)N(c2ccc3c(c2)Cn2cc(-c4ccc(F)cc4)cc2-c2nccn2-3)C1 [Example 89, (R)-1-(12-(4-Fluorophenyl)-9H-benzo[e]imidazo[2,1-c]pyrrolo[1,2-a][1,4]diazepin-7-yl)-4-(((2-hydroxyethyl)(methyl)amino)methyl)pyrrolidin-2-one] | 50 to 100 | 50 to 100
4 | N#Cc1ccc(-c2cc3n(c2)Cc2cc(N4C[C@@H](CN5CCC5)OC4=O)ccc2-n2ccnc2-3)cc1 [Example 5] | < 50 | < 50
5 | CN(C)C[C@@H]1CN(c2ccc3c(c2)Cn2cc(-c4ccc(C#N)cc4)cc2-c2nccn2-3)C(=O)N1C [Example 56, (R)-4-(7-(4-((Dimethylamino)methyl)-3-methyl-2-oxoimidazolidin-1-yl)-9H-benzo[e]imidazo[2,1-c]pyrrolo[1,2-a][1,4]diazepin-12-yl)benzonitrile] | 50 to 100 | 200 to 300
6 | CC1(C)CCN1C[C@H]1CC(=O)N(c2ccc3c(c2)Cn2cc(-c4ccc(C#N)cc4)cc2-c2nccn2-3)C1 [Example 19] | < 50 | 50 to 100
7 | CN(C)C(C)(C)[C@H]1CC(=O)N(c2ccc3c(c2)Cn2cc(-c4ccc(C#N)cc4)cc2-c2nccn2-3)C1 [Example 54] | < 50 | < 50
8 | CN(C)[C@H]1CCN(c2ccc3c(c2)Cn2cc(-c4ccc(C#N)cc4)cc2-c2nccn2-3)C1=O [Example 25, (S)-4-(7-(3-(Dimethylamino)-2-oxopyrrolidin-1-yl)-9H-benzo[e]imidazo [2,1-c]pyrrolo[1,2-a][1,4]diazepin-12-yl)benzonitrile] | 50 to 100 | 300 to 400
9 | CN(C)[C@H]1CCN(C(=O)Nc2ccc3c(c2)Cn2cc(-c4ccc(C#N)cc4)cc2-c2nccn2-3)C1 [Example 73] | < 50 | < 50
10 | CN1CCC(NC(=O)c2ccc3c(c2)Cn2cc(-c4ccc(C#N)cc4)cc2-c2nccn2-3)C1 (stereo not shown) [Example 105] | < 50 | 500 to 1000
11 | CN(CCO)CC1CCN(c2ccc3c(c2)Cn2cc(-c4ccc(C#N)cc4)cc2-c2nccn2-3)C1=O (stereo not shown) [Example 37] | 50 to 100 | 50 to 100
12 | CN1CC(N2C(=O)CN(c3ccc4c(c3)Cn3cc(-c5ccc(C#N)cc5)cc3-c3nccn3-4)C2=O)C1 [Example 69] | < 50 | < 50
13 | CN(C)CC[C@@H]1CCN(c2ccc3c(c2)Cn2cc(-c4ccc(C#N)cc4)cc2-c2nccn2-3)C1=O (single isomer, unassigned) [Example 42] | < 50 | < 50
14 | CN(C)CCNC(=O)c1ccc2c(c1)Cn1cc(-c3ccc(C#N)cc3)cc1-c1nccn1-2 [Example 101, 12-(4-Cyanophenyl)-N-(2-(dimethylamino)ethyl)-9H-benzo[e]imidazo[2,1-c]pyrrolo[1,2-a][1,4]diazepine-7-carboxamide] | 50 to 100 | 100 to 200
15 | Cc1nnc2n1-c1ccc(N3C[C@@H](CN4CCC4)CC3=O)cc1Cn1cc(-c3ccc(C#N)cc3)cc1-2 [Example 82] | 50 to 100 | 300 to 400
16 | N#Cc1ccc(-c2cc3n(c2)Cc2cc(N4CC(=O)N(CC5CNC5)C4=O)ccc2-n2ccnc2-3)cc1 [Example 66] | < 50 | > 1000

Row | Compound | IC50 [1] [nM] | IC50 (THP-1 cells) [nM]
17 | CN(C)C[C@H]1[C@@H]2CN(c3ccc4c(c3)Cn3cc(-c5ccc(C#N)cc5)cc3-c3nccn3-4)C(=O)[C@H]12 [Example 46] | < 50 | 200 to 300
18 | CN(C)CCn1ccn(-c2ccc3c(c2)Cn2cc(-c4ccc(C#N)cc4)cc2-c2nccn2-3)c1=O [Example 70, 4-(7-(3-(2-(Dimethylamino)ethyl)-2-oxo-2,3-dihydro-1H-imidazol-1-yl)-9H-benzo[e]imidazo[2,1-c]pyrrolo[1,2-a][1,4]diazepin-12-yl)benzonitrile] | < 50 | 500 to 1000
19 | CN(CCO)C[C@H]1CCN(c2ccc3c(c2)Cn2cc(-c4ccc(F)cc4)cc2-c2nccn2-3)C1=O [Example 90, (R)-1-(12-(4-Fluorophenyl)-9H-benzo[e]imidazo[2,1-c]pyrrolo[1,2-a][1,4]diazepin-7-yl)-3-(((2-hydroxyethyl)(methyl)amino)methyl)pyrrolidin-2-one] | < 50 | 50 to 100
20 | CN(C)C[C@@H]1CCN1C(=O)c1ccc2c(c1)Cn1cc(-c3ccc(C#N)cc3)cc1-c1nccn1-2 [Example 116] | < 50 | < 50
21 | CN1CC(NC(=O)c2ccc3c(c2)Cn2cc(-c4ccc(C#N)cc4)cc2-c2nccn2-3)C1 [Example 119, 2-(4-Cyanophenyl)-N-(1-methylazetidin-3-yl)-9H-benzo[e]imidazo[2,1-c]pyrrolo [1,2-a][1,4]diazepine-7-carboxamide] | < 50 | 500 to 1000
22 | CCNC[C@H]1CC(=O)N(c2ccc3c(c2)Cn2cc(-c4ccc(C#N)cc4)cc2-c2nccn2-3)C1 [Example 10] | < 50 | 100 to 200
23 | N#Cc1ccc(-c2cc3n(c2)Cc2cc(NC(=O)C4CCNC4)ccc2-n2ccnc2-3)cc1 (stereo not shown) [Example 76, N-(12-(4-Cyanophenyl)-9H-benzo[e]imidazo[2,1-c]pyrrolo[1,2-a][1,4]diazepin-7-yl)pyrrolidine-3-carboxamide] | < 50 | 1000 to 1500
24 | N#Cc1ccc(-c2cc3n(c2)Cc2cc(N4C[C@@H](CN5CCC(F)C5)CC4=O)ccc2-n2ccnc2-3)cc1 (stereo partly drawn) [Example 26, 4-(7-((4R)-4-((3-Fluoropyrrolidin-1-yl)methyl)-2-oxopyrrolidin-1-yl)-9H-benzo[e]imidazo[2,1-c]pyrrolo[1,2-a][1,4]diazepin-12-yl)benzonitrile] | 50 to 100 | 100 to 200
25 | N#Cc1ccc(-c2cc3n(c2)Cc2cc(N4C[C@@H](CN5CCC5)CC4=O)ccc2-n2ccnc2-3)cc1 [Example 27] | < 50 | < 50
26 | CN(C)[C@H]1C[C@H](NC(=O)c2ccc3c(c2)Cn2cc(-c4ccc(C#N)cc4)cc2-c2nccn2-3)C1 [Example 126] | < 50 | 500 to 1000
27 | N#Cc1ccc(-c2cc3n(c2)Cc2cc(N4C[C@@H](CN)CC4=O)ccc2-n2ccnc2-3)cc1 [Example 8] | < 50 | 300 to 400
28 | CN(C)[C@@H]1CCN(C(=O)Nc2ccc3c(c2)Cn2cc(-c4ccc(C#N)cc4)cc2-c2nccn2-3)C1 [Example 74] | < 50 | 50 to 100
29 | CC(C)(C1CC(=O)N(c2ccc3c(c2)Cn2cc(-c4ccc(C#N)cc4)cc2-c2nccn2-3)C1)N1CCC1 (stereo not shown) [Example 55, 4-(7-(4-(2-(Azetidin-1-yl)propan-2-yl)-2-oxopyrrolidin-1-yl)-9H-benzo[e]imidazo[2,1-c]pyrrolo[1,2-a][1,4]diazepin-12-yl)benzonitrile] | < 50 | < 50
30 | CN1CC2(CCN(c3ccc4c(c3)Cn3cc(-c5ccc(C#N)cc5)cc3-c3nccn3-4)C2=O)C1 [Example 24, 4-(7-(2-Methyl-5-oxo-2,6-diazaspiro[3.4]octan-6-yl)-911-benzo[e]imidazo [2,1-c]pyrrolo[1,2-a][1,4]diazepin-12-yl)benzonitrile] | < 50 | < 50
31 | CN(C)CC[C@H]1CCN(c2ccc3c(c2)Cn2cc(-c4ccc(C#N)cc4)cc2-c2nccn2-3)C1=O (single isomer, unassigned) [Example 41] | < 50 | < 50
32 | N#Cc1ccc(-c2cc3n(c2)Cc2cc(N4C[C@@H](CN5CC(F)C5)CC4=O)ccc2-n2ccnc2-3)cc1 [Example 28] | < 50 | 500 to 1000
